This is an account of results in patent publication EP4592296A1, “NOVEL TETRAHETEROCYCLE COMPOUND” (Idience Co., Ltd., priority 2022, dated 2024).

In assay [1] the test system is AsPC-1 pancreatic cancer (KRAS G12D mutation) cells. The assay is described as follows: Cell proliferation assay (CellTiter-Glo cell viability). Type of assay: cell-based. The note with it: AsPC-1 cells, CellTiter-Glo 2.0. The procedure: (§1) Cell viability test of test compounds in AsPC-1 pancreatic cancer (KRAS G12D mutation) or SW480 colon cancer (KRAS G12V mutation) cells for 72 hours
(§2) The reference compound Staurosporine was purchased from Sigma-Aldrich (Saint Louis, […]), and CellTiter-Glo® 2.0 Luminescent cell viability assay reagent (cat# G9243) was purchased from Promega (Madison, WI). AsPC-1 and SW480 cell lines were purchased from the American Type Culture Collection (Manassas, VA). AsPC-1 cells were cultured in RPMI-1640 (ATCC, cat#30-2001), and SW480 cells were cultured in DMEM (ATCC cat#30-2002), supplemented with 10% FBS (Sigma-Aldrich, cat#F2442) and 100 µg/mL penicillin-streptomycin (Sigma-Aldrich, cat#P4333). Cells were cultured at 37 °C in a humidified atmosphere of 5 % CO2 and 95 % air.
(§3) • 1. The test compound and reference compound Staurosporine were dissolved in DMSO solution to prepare 20 mM (test compound) and 10 mM (reference compound Staurosporine) in the Source Plate, and diluted 3-fold and 10 doses with DMSO. • 2. Ten volumes of 125 nL test compound or 25 nL reference compound from the Source Plate were dispensed into wells of a 384-well culture plate (VWR, cat#82050-076) using an Echo 655. • 3. 25 µL of culture medium including 2000 AsPC-1 or SW480 cells was dispensed into each 384-well cell culture plate. • 4. Cells were cultured with compounds at 37 °C, 5 % CO2for 72 hours. • 5. 25 µL of CellTiter-Glo 2.0 reagent was added to each well of the plate. • 6. The contents were mixed in an orbital shaker for 2 minutes and the luminescence signal was stabilized at room temperature for 15 minutes. • 7. Luminescence signals were measured with an Envision 2104 Multilabel Reader (PerkinElmer, Santa Clara, CA), and the number of viable cells was determined by quantifying the ATP present in each culture medium. • 8. IC50 values were calculated based on the sigmoidal dose-response equation in the GraphPad Prism 4 program.
(In general: In ATP-based viability assays light output follows the ATP content of the culture.)

Another assay has as its target T1, KRAS^WT (Homo sapiens, UniProt P01116).
T1 construct: GST-tagged KRAS WT or mutant proteins (amino acids 2-169)
Kind of assay: KRAS nucleotide exchange assay (SOS1-mediated, HTRF). The format is biochemical. The note with it: KRAS 20 nM, SOS1 7.5 nM, labeled GTP 0.15 µM. From the text:
(§4) Evaluation of the inhibitory effect of compounds on SOS1-mediated nucleotide exchange activity of KRAS^WT, KRAS^G12D, and KRAS^G12V mutants
(§5) A method to monitor SOS1-mediated exchange of unlabeled KRAS-bound GDP and fluorescently labeled GTP, based on energy transfer between the donor Tb cryptate-labeled GST antibody and the acceptor DY-647P1 GTP when they are in close proximity.
(§6) • GST-tagged KRAS WT or mutant proteins (amino acids 2-169), • SOS1(amino acids 564-1049), • Labeled GTP (GTP-DY-647P1), • Assay Buffer (20 mM HEPES pH 7.4, 150 mM NaCl, 5 mM MgCl2, 1 mM DTT, 0.05% BSA, 0.0025% NP40)
(§7) • 1. KRAS protein was diluted with assay buffer to 1.5 times the final concentration, mixed with Tb cryptate anti-GST antibody, and 10 µL was added to each assay well (final concentration was 20 nM for KRAS^WT, KRAS^G12D, and KRAS^G12V). • 2. The compound was dissolved in DMSO and then diluted to prepare 100 times the final concentration. • 3. Compounds were dispensed into assay wells using an ECHO acoustic dispenser (Beckman), gently mixed with the KRAS/Ab mixture, and incubated for 60 minutes. • 4. SOS1 and labeled GTP were mixed and diluted to 3 times the final concentration with assay buffer, and 5 µL of the solution was added to the assay well to initiate the reaction (final concentration of labeled GTP was 0.15 µM, final concentration of SOS1 was 7.5 nM in WT, 12.5 nM in G12D, and 50 nM in G12V). Blank wells contained only assay buffer and labeled GTP. • 5. The reaction was monitored at Ex/Em=(337/665; 337/620) using a Pherastar Plate Reader (BMG). • 6. The HTRF signal was analyzed approximately 25 minutes after the start of the reaction (G12V reacted for 60 minutes). • 7. Nucleotide exchange activity was expressed as a percentage difference compared to the DMSO reaction value, and the IC50 value was calculated based on the four-parameter logistic equation in GraphPad 4.0 software. HTRF signal = ems 665/ems 620∗10000 [formula]
For orientation: In TR-FRET formats the signal depends on donor and acceptor labels being close together.

The target in the next assay is T2, KRAS^G12D (Homo sapiens, UniProt P01116, G12D).
T2 construct: GST-tagged KRAS WT or mutant proteins (amino acids 2-169)
Described as above. The format is biochemical. The note with it: KRAS 20 nM, SOS1 12.5 nM, labeled GTP 0.15 µM, 60 min preincubation.
Description: as §4, §5, §6, §7

For the next assay, the target named is T3, KRAS^G12V (Homo sapiens, UniProt P01116, G12V).
T3 construct: GST-tagged KRAS WT or mutant proteins (amino acids 2-169)
The description is as above. The format is biochemical. The conditions noted are these: KRAS 20 nM, SOS1 50 nM, labeled GTP 0.15 µM, reacted 60 minutes.
Description: as §4, §5, §6, §7

For assay [2], the system named is SW480 colon cancer (KRAS G12V mutation) cells. The assay is described as follows: Cell proliferation assay (CellTiter-Glo cell viability). Type of assay: cell-based. The conditions noted are these: Homo sapiens, 72 hours, CellTiter-Glo 2.0. The procedure:
as §1, §2, §3

The next assay concerns the target T4, KRAS G13D (Homo sapiens, UniProt P01116, G13D).
T4 construct: GST-tagged KRAS WT or mutant proteins (amino acids 2-169)
The assay is described as follows: KRAS nucleotide exchange assay (SOS1-mediated, HTRF). Type of assay: biochemical. The note with it: conditions for G13D not described.

The next assay concerns the target T5, KRAS G12C (Homo sapiens, UniProt P01116, G12C).
T5 construct: GST-tagged KRAS WT or mutant proteins (amino acids 2-169)
The assay is described as above. Type of assay: biochemical. The conditions noted are these: conditions for G12C not described.

T2 sequence (P01116 2-169 isoform P01116-2 G12D): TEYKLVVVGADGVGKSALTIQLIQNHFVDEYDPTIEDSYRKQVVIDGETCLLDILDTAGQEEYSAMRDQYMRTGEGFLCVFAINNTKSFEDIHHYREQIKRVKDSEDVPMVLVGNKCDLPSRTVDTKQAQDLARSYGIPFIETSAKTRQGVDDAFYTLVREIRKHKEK
T3 sequence (P01116 2-169 isoform P01116-2 G12V): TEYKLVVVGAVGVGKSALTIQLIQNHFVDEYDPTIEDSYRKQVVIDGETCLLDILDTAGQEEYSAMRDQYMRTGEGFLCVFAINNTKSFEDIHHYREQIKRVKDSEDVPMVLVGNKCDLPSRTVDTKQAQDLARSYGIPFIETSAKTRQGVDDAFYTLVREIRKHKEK
T1 sequence (P01116 2-169 isoform P01116-2): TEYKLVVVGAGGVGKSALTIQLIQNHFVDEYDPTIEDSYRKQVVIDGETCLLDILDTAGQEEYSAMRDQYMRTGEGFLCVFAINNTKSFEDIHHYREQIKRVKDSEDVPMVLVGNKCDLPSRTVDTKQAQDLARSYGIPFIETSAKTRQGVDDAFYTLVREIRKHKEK
T5 sequence (P01116 2-169 isoform P01116-2 G12C): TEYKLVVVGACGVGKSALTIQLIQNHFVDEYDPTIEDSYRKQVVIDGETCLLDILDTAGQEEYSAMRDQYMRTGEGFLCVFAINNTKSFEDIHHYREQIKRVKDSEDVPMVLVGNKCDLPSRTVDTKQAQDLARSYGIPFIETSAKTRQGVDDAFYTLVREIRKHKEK
T4 sequence (P01116 2-169 isoform P01116-2 G13D): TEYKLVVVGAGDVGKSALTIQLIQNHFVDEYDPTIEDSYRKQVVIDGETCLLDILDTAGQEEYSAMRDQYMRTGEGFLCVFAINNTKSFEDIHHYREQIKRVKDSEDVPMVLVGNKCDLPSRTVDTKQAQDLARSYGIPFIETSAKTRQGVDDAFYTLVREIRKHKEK

On to `N#Cc1c(N)sc2c(F)ccc(-c3c(Cl)c4c5c(nc(OC[C@@]67CCCN6C[C@H](F)C7)nc5c3F)N3CCCOC[C@H]3CO4)c12` (single isomer, unassigned) [Example 12a], for which the IC50 in assay [1] (72 hours) lay in the range of 2000 to 20000 nM.
In the case of `N#Cc1c(N)sc2c(F)ccc(-c3c(Cl)c4c5c(nc(OC[C@@]67CCCN6C[C@H](F)C7)nc5c3F)N3CCCOC[C@H]3CO4)c12` (single isomer, unassigned) [Example 12b], in assay [1] (Homo sapiens, ASPC1, 72 h), the IC50 was less than 2000 nM.
For the compound `CCc1c(F)ccc2cc(O)cc(-c3nc4c5c(nc(OC[C@@]67CCCN6C[C@H](F)C7)nc5c3F)N3CCNC[C@@H]3CCO4)c12` [Example 1, 5-ethyl-6-fluoro-4-((S)-1-fluoro-12-(((2R,7aS)-2-fluorotetrahydro-1H-pyrrolizin-7a(5H)-yl)methoxy)-6,6a,7,8,9,10-hexahydro-5H-4-oxa-3,8,10a,11,13-pentaazabenzo[4,5]cycloocta[1,2,3-de]naphthalen-2-yl)naphthalen-2-ol], the IC50 against KRAS^WT was 6.5 nM; on KRAS^G12D, 5.95 nM; in assay [1] (Homo sapiens, ASPC1, 72 h), more than 20000 nM.
As for `C#Cc1c(F)ccc2cc(O)cc(-c3nc4c5c(nc(OC[C@@]67CCCN6C[C@H](F)C7)nc5c3F)N3CCNC[C@@H]3CCO4)c12` [Example 2, 5-ethynyl-6-fluoro-4-((S)-1-fluoro-12-(((2R,7aS)-2-fluorotetrahydro-1H-pyrrolizin-7a(5H)-yl)methoxy)-6,6a,7,8,9,10-hexahydro-5H-4-oxa-3,8,10a,11,13-pentaazabenzo[4,5]cycloocta[1,2,3-de]naphthalen-2-yl)naphthalen-2-ol], the IC50 against KRAS^G12V was 2.89 nM; against KRAS^G12D it was 2.75 nM; in assay [2], more than 20000 nM; in assay [1] (Homo sapiens, ASPC1, 72 h), more than 20000 nM.
Turning to `Nc1nc2c(-c3c(Cl)c4c5c(nc(OC[C@@]67CCCN6C[C@H](F)C7)nc5c3F)N3CCNC[C@@H]3CCO4)ccc(F)c2s1` [Example 3, 4-((14aS)-11-chloro-9-fluoro-7-(((2R,7aS)-2-fluorotetrahydro-1H-pyrrolizin-7a(5H)-yl)methoxy)-1,3,4,13,14,14a-hexahydro-2H-pyrazino[1',2':5,6][1,5]oxazocino[4,3,2-de]quinazolin-10-yl)-7-fluorobenzo[d]thiazol-2-amine], the IC50 against KRAS^G12D was 7.84 nM; in assay [1] (Homo sapiens, ASPC1, 72 h) it was 2000 to 20000 nM.
Regarding `Oc1cc(Cl)c(C2CC2)c(-c2nc3c4c(nc(OCC56CCCN5CC(F)C6)nc4c2F)N2CCNCC2CCO3)c1` [Example 4, 3-chloro-4-cyclopropyl-5-((S)-1-fluoro-12-(((2R,7aS)-2-fluorotetrahydro-1H-pyrrolizin-7a(5H)-yl)methoxy)-6,6a,7,8,9,10-hexahydro-5H-4-oxa-3,8,10a,11,13-pentaazabenzo[4,5]cycloocta[1,2,3-de]naphthalen-2-yl)phenol], half-maximal inhibition against KRAS^G12D (IC50) was put at 52.5 nM.
Still for that read-out and setting: in the case of `CCc1c(F)ccc2cc(O)cc(-c3nc4c5c(nc(OC[C@@]67CCCN6C[C@H](F)C7)nc5c3F)N3CCNC[C@@H]3CC(C)O4)c12` (stereo partly drawn) [Example 5, 5-ethyl-6-fluoro-4-((6aS)-1-fluoro-12-(((2R,7aS)-2-fluorotetrahydro-1H-pyrrolizin-7a(5H)-yl)methoxy)-5-methyl-6,6a,7,8,9,10-hexahydro-5H-4-oxa-3,8,10a,11,13-pentaazabenzo[4,5]cycloocta[1,2,3-de]naphthalen-2-yl)naphthalen-2-ol] it was 12.5 nM.
As to `Nc1nc2c(-c3c(Cl)c4c5c(nc(OC[C@@]67CCCN6C[C@H](F)C7)nc5c3F)N3CCCCCC3CO4)ccc(F)c2s1` (stereo partly drawn) [Example 6, 4-(3-chloro-1-fluoro-13-(((2R,7aS)-2-fluorotetrahydro-1H-pyrrolizin-7a(5H)-yl)methoxy)-5a,6,7,8,9,10-hexahydro-5H-azepino[2',1':3,4][1,4]oxazepino[5,6,7-de]quinazolin-2-yl)-7-fluorobenzo[d]thiazol-2-amine], the IC50 against KRAS G13D was 11.1 nM; against KRAS G12C, 2.36 nM; on KRAS^G12V, 5.9 nM; against KRAS^G12D it was 5.9 nM; in assay [1] (Homo sapiens, ASPC1, 72 h), less than 2000 nM.
`Nc1nc2c(-c3c(Cl)c4c5c(nc(OC[C@@]67CCCN6C[C@H](F)C7)nc5c3F)N3CCCOC[C@H]3CO4)ccc(F)c2s1` [Example 7, 4-((14aS)-12-chloro-10-fluoro-8-(((2R,7aS)-2-fluorotetrahydro-1H-pyrrolizin-7a(5H)-yl)methoxy)-4,5,14,14a-tetrahydro-1H,3H-[1,4]oxazepino[3',4':3,4][1,4]oxazepino[5,6,7-de]quinazolin-11-yl)-7-fluorobenzo[d]thiazol-2-amine] came in with an IC50 in assay [1] (Homo sapiens, ASPC1, 72 h) of less than 2000 nM.
In assay [1] (Homo sapiens, ASPC1, 72 h), `N#Cc1c(N)sc2c(F)ccc(-c3c(Cl)c4c5c(nc(OC[C@@]67CCCN6C[C@H](F)C7)nc5c3F)N3CCCCC[C@@H]3CO4)c12` [Example 11a, 2-amino-4-(3-chloro-1-fluoro-13-(((2R,7aS)-2-fluorotetrahydro-1H-pyrrolizin-7a(5H)-yl)methoxy)-5a,6,7,8,9,10-hexahydro-5H-azepino[2',1':3,4][1,4]oxazepino[5,6,7-de]quinazolin-2-yl)-7-fluorobenzo[b]thiophene-3-carbonitrile] displayed an IC50 of 2000 to 20000 nM.
Same read-out and setting: then `N#Cc1c(N)sc2c(F)ccc(-c3c(Cl)c4c5c(nc(OC[C@@]67CCCN6C[C@H](F)C7)nc5c3F)N3CCCCC[C@H]3CO4)c12` [Example 11b, 2-amino-4-(3-chloro-1-fluoro-13-(((2R,7aS)-2-fluorotetrahydro-1H-pyrrolizin-7a(5H)-yl)methoxy)-5a,6,7,8,9,10-hexahydro-5H-azepino[2',1':3,4][1,4]oxazepino[5,6,7-de]quinazolin-2-yl)-7-fluorobenzo[b]thiophene-3-carbonitrile], with less than 2000 nM.

One may read the IC50 as the concentration that inhibits the measured activity by half. Read a high IC50 as a need for much substance.
